Key:
Assay in all cases: radiometric filter-binding kinase assay
MAP3K5 (human) = MAP3K5 (human) (UniProt Q99683)
MKNK1 (human) = MKNK1 (human) (UniProt Q9BUB5)
MAPK10 (human) = MAPK10 (human) (UniProt P53779)
NEK2 (human) = NEK2 (human) (UniProt P51955)
MARK2 (human) = MARK2 (human) (UniProt Q7KZI7)
CHEK2 (human) = CHEK2 (human) (UniProt O96017)
SRC (human) = SRC (human) (UniProt P12931)
PKN2 (human) = PKN2 (human) (UniProt Q16513)
PRKAA1 or PRKAA2 (rat) = settings: accession and sequence are those of the human protein
MKNK2 (human) = MKNK2 (human) (UniProt Q9HBH9)
EPHB4 (human) = EPHB4 (human) (UniProt P54760)
MAP3K1 (human) = MAP3K1 (human) (UniProt Q13233)
PRKACA (human) = PRKACA (human) (UniProt P17612)
MINK1 (human) = MINK1 (human) (UniProt Q8N4C8)
[1] = target: STK11 CAB39 STRADA (human) (UniProt Q9Y376+Q7RTN6+Q15831)
MAPK9 (human) = MAPK9 (human) (UniProt P45984)
MAP2K1 (human) = MAP2K1 (human) (UniProt Q02750)
STK3 (human) = STK3 (human) (UniProt Q13188)
PRKCA (human) = PRKCA (human) (UniProt P17252)
MAPK1 (human) = MAPK1 (human) (UniProt P28482)
MAPK3 (human) = MAPK3 (human) (UniProt P27361)
IKBKB (human) = IKBKB (human) (UniProt O14920)
NTRK1 (human) = NTRK1 (human) (UniProt P04629)
[2] = test system: AKT2 (human), P31751 [S474D]
PHKG1 (human) = PHKG1 (human) (UniProt Q16816)
PIM2 (human) = PIM2 (human) (UniProt Q9P1W9)
IGF1R (human) = IGF1R (human) (UniProt P08069)
RPS6KA1 KD1 KD2 (human) = RPS6KA1 KD1 KD2 (human) (UniProt Q15418)
YES1 (human) = YES1 (human) (UniProt P07947)
MAPKAPK2 (human) = MAPKAPK2 (human) (UniProt P49137)
CAMKK2 (human) = CAMKK2 (human) (UniProt Q96RR4)
AURKB (human) = AURKB (human) (UniProt Q96GD4)
CHEK1 (human) = CHEK1 (human) (UniProt O14757)
GCK (human) = GCK (human) (UniProt Q12851)
MAPK15 (human) = MAPK15 (human) (UniProt Q8TD08)

Sequence of MARK2 (human) (Q7KZI7 whole entry, looked up): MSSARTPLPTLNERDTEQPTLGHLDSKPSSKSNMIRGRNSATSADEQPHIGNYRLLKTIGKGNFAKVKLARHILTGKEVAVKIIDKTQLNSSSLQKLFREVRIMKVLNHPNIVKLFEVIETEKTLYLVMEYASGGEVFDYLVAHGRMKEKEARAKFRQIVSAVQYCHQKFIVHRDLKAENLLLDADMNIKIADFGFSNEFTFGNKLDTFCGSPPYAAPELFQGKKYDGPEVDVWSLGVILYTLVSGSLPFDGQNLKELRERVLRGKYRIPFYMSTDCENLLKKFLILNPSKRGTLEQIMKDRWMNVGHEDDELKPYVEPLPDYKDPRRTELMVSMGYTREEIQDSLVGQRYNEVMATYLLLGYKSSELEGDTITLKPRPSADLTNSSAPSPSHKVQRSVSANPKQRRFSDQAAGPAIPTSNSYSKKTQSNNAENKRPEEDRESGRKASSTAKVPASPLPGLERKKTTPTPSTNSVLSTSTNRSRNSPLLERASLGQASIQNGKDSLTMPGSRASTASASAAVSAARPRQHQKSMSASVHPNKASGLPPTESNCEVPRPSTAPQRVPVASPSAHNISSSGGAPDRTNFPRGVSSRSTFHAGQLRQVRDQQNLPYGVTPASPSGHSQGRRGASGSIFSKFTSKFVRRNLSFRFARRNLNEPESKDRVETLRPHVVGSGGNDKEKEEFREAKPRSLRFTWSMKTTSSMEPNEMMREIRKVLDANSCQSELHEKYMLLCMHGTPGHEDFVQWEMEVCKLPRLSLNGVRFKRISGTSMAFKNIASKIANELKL
Sequence of GCK (human) (Q12851 whole entry, looked up): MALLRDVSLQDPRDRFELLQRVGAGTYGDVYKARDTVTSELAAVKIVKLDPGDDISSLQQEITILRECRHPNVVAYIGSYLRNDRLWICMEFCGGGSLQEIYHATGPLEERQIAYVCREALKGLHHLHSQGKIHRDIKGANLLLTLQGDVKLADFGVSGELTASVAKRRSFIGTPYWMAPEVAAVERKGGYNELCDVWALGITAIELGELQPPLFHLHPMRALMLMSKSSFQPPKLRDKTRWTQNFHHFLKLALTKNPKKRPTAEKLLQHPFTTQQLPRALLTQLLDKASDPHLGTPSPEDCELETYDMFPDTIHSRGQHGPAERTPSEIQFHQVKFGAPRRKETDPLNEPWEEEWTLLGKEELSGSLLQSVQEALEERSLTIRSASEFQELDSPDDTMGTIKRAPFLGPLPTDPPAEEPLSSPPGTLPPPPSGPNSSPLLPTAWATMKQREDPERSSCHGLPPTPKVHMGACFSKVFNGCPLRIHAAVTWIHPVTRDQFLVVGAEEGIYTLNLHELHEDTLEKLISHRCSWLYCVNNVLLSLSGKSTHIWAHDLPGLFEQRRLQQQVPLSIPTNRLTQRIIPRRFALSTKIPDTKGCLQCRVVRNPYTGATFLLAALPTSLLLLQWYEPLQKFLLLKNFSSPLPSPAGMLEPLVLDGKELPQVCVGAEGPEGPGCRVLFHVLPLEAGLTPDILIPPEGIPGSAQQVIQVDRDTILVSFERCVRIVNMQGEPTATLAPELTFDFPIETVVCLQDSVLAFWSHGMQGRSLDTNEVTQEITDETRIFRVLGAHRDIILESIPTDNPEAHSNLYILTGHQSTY
Sequence of CHEK2 (human) (O96017 whole entry, looked up): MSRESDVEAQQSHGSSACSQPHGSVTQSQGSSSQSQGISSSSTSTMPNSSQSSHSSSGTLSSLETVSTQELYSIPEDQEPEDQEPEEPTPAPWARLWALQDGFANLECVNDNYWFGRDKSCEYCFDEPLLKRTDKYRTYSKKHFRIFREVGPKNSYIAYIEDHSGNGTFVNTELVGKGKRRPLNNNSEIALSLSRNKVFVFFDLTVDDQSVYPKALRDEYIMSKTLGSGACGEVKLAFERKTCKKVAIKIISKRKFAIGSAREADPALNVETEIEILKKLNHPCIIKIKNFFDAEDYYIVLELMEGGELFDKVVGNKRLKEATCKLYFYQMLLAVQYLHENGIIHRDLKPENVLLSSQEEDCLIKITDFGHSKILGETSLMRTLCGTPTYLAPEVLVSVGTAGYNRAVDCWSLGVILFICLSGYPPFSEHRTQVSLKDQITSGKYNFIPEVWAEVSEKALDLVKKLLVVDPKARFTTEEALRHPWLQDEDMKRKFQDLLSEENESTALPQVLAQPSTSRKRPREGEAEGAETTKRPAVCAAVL
Sequence of PKN2 (human) (Q16513 whole entry, looked up): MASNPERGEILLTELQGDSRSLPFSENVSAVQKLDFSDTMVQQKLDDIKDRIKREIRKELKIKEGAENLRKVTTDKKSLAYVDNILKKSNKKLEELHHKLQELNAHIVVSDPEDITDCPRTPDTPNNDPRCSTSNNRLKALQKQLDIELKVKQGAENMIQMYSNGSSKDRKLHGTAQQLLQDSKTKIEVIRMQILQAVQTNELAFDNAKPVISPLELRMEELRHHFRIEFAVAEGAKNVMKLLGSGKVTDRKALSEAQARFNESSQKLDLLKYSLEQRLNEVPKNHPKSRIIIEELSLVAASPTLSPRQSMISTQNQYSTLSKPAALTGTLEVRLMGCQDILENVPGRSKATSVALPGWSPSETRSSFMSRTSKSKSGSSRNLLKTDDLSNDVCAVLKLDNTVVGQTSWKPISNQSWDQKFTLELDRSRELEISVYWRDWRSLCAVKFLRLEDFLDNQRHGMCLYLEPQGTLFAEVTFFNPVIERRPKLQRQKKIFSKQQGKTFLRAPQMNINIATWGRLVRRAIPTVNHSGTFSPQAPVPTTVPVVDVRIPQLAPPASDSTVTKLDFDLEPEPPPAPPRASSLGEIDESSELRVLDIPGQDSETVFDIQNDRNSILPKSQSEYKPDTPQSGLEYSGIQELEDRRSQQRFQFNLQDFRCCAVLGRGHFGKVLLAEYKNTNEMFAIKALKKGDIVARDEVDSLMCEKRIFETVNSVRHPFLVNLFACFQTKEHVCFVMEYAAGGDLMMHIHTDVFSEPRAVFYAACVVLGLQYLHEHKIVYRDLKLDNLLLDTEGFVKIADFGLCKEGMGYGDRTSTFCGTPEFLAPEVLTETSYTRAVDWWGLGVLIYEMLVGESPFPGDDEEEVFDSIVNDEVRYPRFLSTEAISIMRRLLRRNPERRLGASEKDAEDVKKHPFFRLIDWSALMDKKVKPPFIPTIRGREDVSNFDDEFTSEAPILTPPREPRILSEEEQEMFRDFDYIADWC
Sequence of PHKG1 (human) (Q16816 whole entry, looked up): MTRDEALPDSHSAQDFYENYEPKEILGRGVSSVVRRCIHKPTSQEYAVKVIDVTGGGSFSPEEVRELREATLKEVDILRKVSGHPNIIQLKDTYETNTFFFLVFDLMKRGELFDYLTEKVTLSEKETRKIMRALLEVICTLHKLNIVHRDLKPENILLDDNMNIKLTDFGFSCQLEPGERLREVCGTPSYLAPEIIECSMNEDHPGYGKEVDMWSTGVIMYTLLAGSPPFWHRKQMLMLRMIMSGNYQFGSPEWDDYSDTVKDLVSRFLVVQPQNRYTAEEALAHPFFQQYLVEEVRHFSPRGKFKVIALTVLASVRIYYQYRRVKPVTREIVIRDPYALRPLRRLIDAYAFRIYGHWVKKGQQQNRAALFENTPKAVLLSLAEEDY
Sequence of MAPK3 (human) (P27361 whole entry, looked up): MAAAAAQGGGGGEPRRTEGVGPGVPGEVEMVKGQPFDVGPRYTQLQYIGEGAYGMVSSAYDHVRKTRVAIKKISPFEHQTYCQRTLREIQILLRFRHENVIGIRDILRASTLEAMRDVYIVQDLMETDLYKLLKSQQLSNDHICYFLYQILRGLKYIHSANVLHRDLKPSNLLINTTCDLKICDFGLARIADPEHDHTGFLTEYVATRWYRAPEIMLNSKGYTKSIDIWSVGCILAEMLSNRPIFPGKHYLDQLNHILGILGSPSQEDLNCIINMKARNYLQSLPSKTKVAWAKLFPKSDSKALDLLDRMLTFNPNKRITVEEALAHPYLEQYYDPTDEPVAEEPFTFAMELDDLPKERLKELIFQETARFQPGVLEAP
Sequence of EPHB4 (human) (P54760 whole entry, looked up): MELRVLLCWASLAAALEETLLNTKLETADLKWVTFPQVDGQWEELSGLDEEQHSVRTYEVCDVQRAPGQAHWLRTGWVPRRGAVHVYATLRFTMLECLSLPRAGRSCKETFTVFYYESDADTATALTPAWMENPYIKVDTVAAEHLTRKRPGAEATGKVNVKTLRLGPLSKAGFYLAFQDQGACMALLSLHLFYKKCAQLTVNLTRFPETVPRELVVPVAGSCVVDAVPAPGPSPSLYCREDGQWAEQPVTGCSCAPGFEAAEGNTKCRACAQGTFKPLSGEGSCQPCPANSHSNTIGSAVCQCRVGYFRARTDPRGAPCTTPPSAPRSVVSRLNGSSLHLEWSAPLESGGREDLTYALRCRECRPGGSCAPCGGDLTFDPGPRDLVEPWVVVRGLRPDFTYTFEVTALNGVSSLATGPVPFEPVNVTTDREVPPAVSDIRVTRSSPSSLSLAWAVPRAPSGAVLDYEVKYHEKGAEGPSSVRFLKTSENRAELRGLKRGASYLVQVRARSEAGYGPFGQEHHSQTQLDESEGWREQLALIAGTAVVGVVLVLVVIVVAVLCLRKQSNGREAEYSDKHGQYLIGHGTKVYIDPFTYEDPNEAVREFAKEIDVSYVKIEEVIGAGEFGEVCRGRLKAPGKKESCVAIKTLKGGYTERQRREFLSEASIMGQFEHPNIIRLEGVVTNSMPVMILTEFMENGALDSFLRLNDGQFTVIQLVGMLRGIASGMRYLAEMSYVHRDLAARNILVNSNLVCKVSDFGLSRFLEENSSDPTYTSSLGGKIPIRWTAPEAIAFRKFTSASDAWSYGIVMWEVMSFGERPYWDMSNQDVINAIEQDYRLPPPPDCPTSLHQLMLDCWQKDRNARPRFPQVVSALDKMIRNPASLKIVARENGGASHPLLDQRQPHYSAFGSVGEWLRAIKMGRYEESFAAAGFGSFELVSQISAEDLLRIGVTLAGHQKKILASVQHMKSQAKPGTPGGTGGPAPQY

Structure (SMILES): NS(=O)(=O)OC[C@@H]1C[C@@H](n2ccc3c(N[C@H]4CCc5ccccc54)ncnc32)C[C@@H]1O
- residual activity (MAP3K5 (human); compound 1.0 µM): 87%
- residual activity (MAP3K5 (human); compound 10.0 µM): 87%
- residual activity (MKNK1 (human); compound 1.0 µM): 104%
- residual activity (MKNK1 (human); compound 10.0 µM): 92%
- residual activity (MAPK10 (human); compound 1.0 µM): 81%
- residual activity (MAPK10 (human); compound 10.0 µM): 82%
- residual activity (NEK2 (human); compound 1.0 µM): 109%
- residual activity (NEK2 (human); compound 10.0 µM): 100%
- residual activity (MARK2 (human); compound 1.0 µM): 90%
- residual activity (MARK2 (human); compound 10.0 µM): 88%
- residual activity (CHEK2 (human); compound 10.0 µM): 67%
- residual activity (SRC (human); compound 10.0 µM): 113%
- residual activity (PKN2 (human); compound 1.0 µM): 90%
- residual activity (PKN2 (human); compound 10.0 µM): 92%
- residual activity (PRKAA1 or PRKAA2 (rat); compound 1.0 µM): 96%
- residual activity (PRKAA1 or PRKAA2 (rat); compound 10.0 µM): 99%
- residual activity (MKNK2 (human); compound 10.0 µM): 108%
- residual activity (EPHB4 (human); compound 1.0 µM): 106%
- residual activity (EPHB4 (human); compound 10.0 µM): 108%
- residual activity (MAP3K1 (human); compound 10.0 µM): 107%
- residual activity (PRKACA (human); compound 1.0 µM): 73%
- residual activity (PRKACA (human); compound 10.0 µM): 81%
- residual activity (MINK1 (human); compound 1.0 µM): 93%
- residual activity (MINK1 (human); compound 10.0 µM): 96%
- residual activity ([1]; compound 1.0 µM): 127%
- residual activity ([1]; compound 10.0 µM): 104%
- residual activity (MAPK9 (human); compound 1.0 µM): 83%
- residual activity (MAPK9 (human); compound 10.0 µM): 88%
- residual activity (MAP2K1 (human); compound 1.0 µM): 95%
- residual activity (MAP2K1 (human); compound 10.0 µM): 99%
- residual activity (STK3 (human); compound 1.0 µM): 87%
- residual activity (STK3 (human); compound 10.0 µM): 84%
- residual activity (PRKCA (human); compound 10.0 µM): 88%
- residual activity (MAPK1 (human); compound 10.0 µM): 89%
- residual activity (MAPK3 (human); compound 1.0 µM): 77%
- residual activity (MAPK3 (human); compound 10.0 µM): 73%
- residual activity (IKBKB (human); compound 1.0 µM): 100%
- residual activity (IKBKB (human); compound 10.0 µM): 96%
- residual activity (NTRK1 (human); compound 10.0 µM): 92%
- residual activity ([2]; compound 10.0 µM): 88%
- residual activity (PHKG1 (human); compound 1.0 µM): 109%
- residual activity (PHKG1 (human); compound 10.0 µM): 106%
- residual activity (PIM2 (human); compound 10.0 µM): 101%
- residual activity (IGF1R (human); compound 1.0 µM): 94%
- residual activity (IGF1R (human); compound 10.0 µM): 88%
- residual activity (RPS6KA1 KD1 KD2 (human); compound 1.0 µM): 96%
- residual activity (RPS6KA1 KD1 KD2 (human); compound 10.0 µM): 95%
- residual activity (YES1 (human); compound 10.0 µM): 79%
- residual activity (MAPKAPK2 (human); compound 1.0 µM): 88%
- residual activity (MAPKAPK2 (human); compound 10.0 µM): 93%
- residual activity (CAMKK2 (human); compound 1.0 µM): 96%
- residual activity (CAMKK2 (human); compound 10.0 µM): 108%
- residual activity (AURKB (human); compound 10.0 µM): 93%
- residual activity (CHEK1 (human); compound 1.0 µM): 91%
- residual activity (CHEK1 (human); compound 10.0 µM): 98%
- residual activity (GCK (human); compound 1.0 µM): 91%
- residual activity (GCK (human); compound 10.0 µM): 88%

Structure (SMILES): CN(C)C/C=C/C(=O)Nc1cccc(C(=O)Nc2ccc(Nc3nccc(-c4cccnc4)n3)cc2)c1
- residual activity (MAP3K5 (human); compound 0.1 µM): 96%
- residual activity (MAP3K5 (human); compound 1.0 µM): 100%
- residual activity (MKNK1 (human); compound 0.1 µM): 84%
- residual activity (MAPK10 (human); compound 0.1 µM): 15%
- residual activity (MAPK10 (human); compound 1.0 µM): 16%
- residual activity (NEK2 (human); compound 0.1 µM): 93%
- residual activity (MARK2 (human); compound 0.1 µM): 94%
- residual activity (MARK2 (human); compound 1.0 µM): 85%
- residual activity (CHEK2 (human); compound 0.1 µM): 89%
- residual activity (CHEK2 (human); compound 1.0 µM): 73%
- residual activity (SRC (human); compound 0.1 µM): 93%
- residual activity (SRC (human); compound 1.0 µM): 72%
- residual activity (PKN2 (human); compound 0.1 µM): 99%
- residual activity (PKN2 (human); compound 1.0 µM): 92%
- residual activity (PRKAA1 or PRKAA2 (rat); compound 0.1 µM): 92%
- residual activity (PRKAA1 or PRKAA2 (rat); compound 1.0 µM): 87%
- residual activity (MKNK2 (human); compound 0.1 µM): 92%
- residual activity (EPHB4 (human); compound 0.1 µM): 105%
- residual activity (EPHB4 (human); compound 1.0 µM): 109%
- residual activity (MAP3K1 (human); compound 0.1 µM): 85%
- residual activity (MAP3K1 (human); compound 1.0 µM): 100%
- residual activity (PRKACA (human); compound 0.1 µM): 97%
- residual activity (PRKACA (human); compound 1.0 µM): 108%
- residual activity (MINK1 (human); compound 0.1 µM): 92%
- residual activity (MINK1 (human); compound 1.0 µM): 69%
- residual activity ([1]; compound 0.1 µM): 78%
- residual activity ([1]; compound 1.0 µM): 91%
- residual activity (MAPK9 (human); compound 0.1 µM): 81%
- residual activity (MAPK9 (human); compound 1.0 µM): 19%
- residual activity (MAP2K1 (human); compound 0.1 µM): 98%
- residual activity (MAP2K1 (human); compound 1.0 µM): 113%
- residual activity (STK3 (human); compound 0.1 µM): 83%
- residual activity (STK3 (human); compound 1.0 µM): 64%
- residual activity (PRKCA (human); compound 0.1 µM): 89%
- residual activity (PRKCA (human); compound 1.0 µM): 97%
- residual activity (MAPK1 (human); compound 0.1 µM): 99%
- residual activity (MAPK1 (human); compound 1.0 µM): 114%
- residual activity (MAPK3 (human); compound 0.1 µM): 110%
- residual activity (MAPK3 (human); compound 1.0 µM): 109%
- residual activity (IKBKB (human); compound 0.1 µM): 76%
- residual activity (IKBKB (human); compound 1.0 µM): 63%
- residual activity (NTRK1 (human); compound 1.0 µM): 82%
- residual activity ([2]; compound 0.1 µM): 93%
- residual activity ([2]; compound 1.0 µM): 106%
- residual activity (PHKG1 (human); compound 0.1 µM): 94%
- residual activity (PHKG1 (human); compound 1.0 µM): 83%
- residual activity (PIM2 (human); compound 0.1 µM): 96%
- residual activity (PIM2 (human); compound 1.0 µM): 102%
- residual activity (MAPK15 (human); compound 0.1 µM): 46%
- residual activity (MAPK15 (human); compound 1.0 µM): 20%
- residual activity (IGF1R (human); compound 1.0 µM): 102%
- residual activity (YES1 (human); compound 0.1 µM): 80%
- residual activity (YES1 (human); compound 1.0 µM): 58%
- residual activity (MAPKAPK2 (human); compound 0.1 µM): 91%
- residual activity (MAPKAPK2 (human); compound 1.0 µM): 106%
- residual activity (CAMKK2 (human); compound 0.1 µM): 87%
- residual activity (CAMKK2 (human); compound 1.0 µM): 35%
- residual activity (AURKB (human); compound 0.1 µM): 74%
- residual activity (AURKB (human); compound 1.0 µM): 73%
- residual activity (CHEK1 (human); compound 0.1 µM): 74%
- residual activity (CHEK1 (human); compound 1.0 µM): 88%
- residual activity (GCK (human); compound 0.1 µM): 45%
- residual activity (GCK (human); compound 1.0 µM): 20%
